Publication doi:10.1101/2024.08.19.608619, “Discovery of potent SARS-CoV-2 nsp3 macrodomain inhibitors uncovers lack of translation to cellular antiviral response” (bioRxiv, 2024)
Where “and” joins values, the source holds several entries; their conditions need not be identical. Equal entries are not always repeated.

tested on: SARS-CoV-2, isolate USA-WA1/2020; assay: microbe, parasite or virus in culture; format: cell-based; conditions: HeLa-ACE2 SARS-CoV-2 antiviral effect without P-gp inhibitor; maximum measured response

SMILES | perc_max_measured
CC(C)[C@H](Nc1ncnc2[nH]c(-c3cnn(C)c3C#N)cc12)c1ccc2c(n1)OCCO2 [ASAP-0010715] | 105.242%

same assay, conditions: HeLa-ACE2 SARS-CoV-2 antiviral effect without P-gp inhibitor; maximum measured response of dose series

SMILES | perc_max_measured
CC(C)[C@H](Nc1ncnc2[nH]c(-c3cnn(C)c3C#N)cc12)c1ccc2c(n1)OCCO2 [ASAP-0010715] | 125.33%

same assay, conditions: HeLa-ACE2 SARS-CoV-2 antiviral effect without P-gp inhibitor; minimum measured response

SMILES | perc_min_measured
CC(C)[C@H](Nc1ncnc2[nH]c(-c3cnn(C)c3C#N)cc12)c1ccc2c(n1)OCCO2 [ASAP-0010715] | 1.508%

same assay, conditions: HeLa-ACE2 SARS-CoV-2 antiviral effect without P-gp inhibitor; minimum measured response of dose series

SMILES | perc_min_measured
CC(C)[C@H](Nc1ncnc2[nH]c(-c3cnn(C)c3C#N)cc12)c1ccc2c(n1)OCCO2 [ASAP-0010715] | 4.425%

same assay, conditions: HeLa-ACE2 SARS-CoV-2 antiviral effect without P-gp inhibitor; read-out: ec50

SMILES | EC50
CC(C)[C@H](Nc1ncnc2[nH]c(-c3cnn(C)c3C#N)cc12)c1ccc2c(n1)OCCO2 [ASAP-0010715] | 0.508 µM and 0.819 µM

same assay, conditions: HeLa-ACE2 SARS-CoV-2 antiviral effect without P-gp inhibitor; read-out: ec90

SMILES | EC90
CC(C)[C@H](Nc1ncnc2[nH]c(-c3cnn(C)c3C#N)cc12)c1ccc2c(n1)OCCO2 [ASAP-0010715] | 1.96 µM and 3.36 µM

tested on: not listed separately; assay: In vitro mouse hepatocyte stability; format: in vitro ADME; conditions: not given
Excerpt: (§1) Supplement media-1.zip/Hepatocyte_Stability.csv, table | column: clint; t_half

SMILES | clint | t_half
CC(C)[C@H](Nc1ncnc2[nH]c(-c3cnn(C)c3C#N)cc12)c1ccc2c(n1)OCCO2 [ASAP-0010715] | 91.6 uL/min/1E6 cells | 7.57 min

tested on: not listed separately; assay: In vitro dog hepatocyte stability; format: in vitro ADME; conditions: not given
Excerpt: as §1

SMILES | clint | t_half
CC(C)[C@H](Nc1ncnc2[nH]c(-c3cnn(C)c3C#N)cc12)c1ccc2c(n1)OCCO2 [ASAP-0010715] | 3.01 uL/min/1E6 cells | 231.0 min

target: T1, 5-HT transporter (h) (Homo sapiens, UniProt P31645); assay: In vitro CEREP profiling, 5-HT transporter (h) (antagonist radioligand); conditions: test compound concentration 10 uM
T1 construct: purchased Eurofins Cerep (SafetyScreen44), recognised from the panel format
T1 sequence (P31645 whole entry): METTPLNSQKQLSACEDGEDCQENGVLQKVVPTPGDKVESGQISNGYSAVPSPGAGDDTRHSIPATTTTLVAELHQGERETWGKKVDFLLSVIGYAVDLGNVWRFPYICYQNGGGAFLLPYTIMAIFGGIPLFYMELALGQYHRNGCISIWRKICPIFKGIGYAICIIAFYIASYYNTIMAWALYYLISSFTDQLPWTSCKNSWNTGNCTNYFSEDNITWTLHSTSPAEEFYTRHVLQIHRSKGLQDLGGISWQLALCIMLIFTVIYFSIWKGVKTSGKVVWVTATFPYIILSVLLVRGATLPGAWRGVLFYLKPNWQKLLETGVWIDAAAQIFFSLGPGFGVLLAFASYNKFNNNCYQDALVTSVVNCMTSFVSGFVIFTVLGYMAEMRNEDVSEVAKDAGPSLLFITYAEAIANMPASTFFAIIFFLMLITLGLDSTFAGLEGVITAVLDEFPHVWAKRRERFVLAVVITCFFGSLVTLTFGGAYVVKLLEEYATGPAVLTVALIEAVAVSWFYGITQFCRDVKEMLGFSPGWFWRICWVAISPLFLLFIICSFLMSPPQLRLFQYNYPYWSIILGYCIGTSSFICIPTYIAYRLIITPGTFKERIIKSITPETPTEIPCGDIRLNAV
Excerpt: (§2) Supplement media-1.zip/Safety_Panel_Profile.csv, table | column: perc_inhibition

SMILES | perc_inhibition: % inhibition of the binding of a ligand specific for each target, 5-HT transporter (h) (antagonist radioligand)
CC(C)[C@H](Nc1ncnc2[nH]c(-c3cnn(C)c3C#N)cc12)c1ccc2c(n1)OCCO2 [ASAP-0010715] | 4%

target: T2, alpha1A (h) (Homo sapiens, UniProt P35348); assay: In vitro CEREP profiling, alpha1A (h) (antagonist radioligand); format: binding; conditions: test compound 10 uM
T2 construct: purchased Eurofins Cerep (SafetyScreen44), recognised from the panel format
T2 sequence (P35348 1-466): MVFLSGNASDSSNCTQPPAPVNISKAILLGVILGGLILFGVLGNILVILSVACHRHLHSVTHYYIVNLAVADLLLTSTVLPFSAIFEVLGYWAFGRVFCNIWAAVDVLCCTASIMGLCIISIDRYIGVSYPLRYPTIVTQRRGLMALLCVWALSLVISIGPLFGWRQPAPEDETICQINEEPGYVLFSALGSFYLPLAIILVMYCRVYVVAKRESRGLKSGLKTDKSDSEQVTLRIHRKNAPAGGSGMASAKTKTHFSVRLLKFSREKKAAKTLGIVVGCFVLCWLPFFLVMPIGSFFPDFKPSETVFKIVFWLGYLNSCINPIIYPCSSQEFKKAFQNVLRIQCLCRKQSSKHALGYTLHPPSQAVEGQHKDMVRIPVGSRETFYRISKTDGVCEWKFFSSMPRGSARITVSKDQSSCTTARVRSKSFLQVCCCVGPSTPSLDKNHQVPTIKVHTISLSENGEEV
Excerpt: as §2

SMILES | perc_inhibition (% inhibition of the binding of a ligand specific for each target)
CC(C)[C@H](Nc1ncnc2[nH]c(-c3cnn(C)c3C#N)cc12)c1ccc2c(n1)OCCO2 [ASAP-0010715] | 34%

target: T3, H1 (h) (Homo sapiens, UniProt P35367); assay: In vitro CEREP profiling, H1 (h) (antagonist radioligand); format: binding; conditions: test compound concentration 10 uM
T3 construct: purchased Eurofins Cerep (SafetyScreen44), recognised from the panel format
T3 sequence (P35367 whole entry): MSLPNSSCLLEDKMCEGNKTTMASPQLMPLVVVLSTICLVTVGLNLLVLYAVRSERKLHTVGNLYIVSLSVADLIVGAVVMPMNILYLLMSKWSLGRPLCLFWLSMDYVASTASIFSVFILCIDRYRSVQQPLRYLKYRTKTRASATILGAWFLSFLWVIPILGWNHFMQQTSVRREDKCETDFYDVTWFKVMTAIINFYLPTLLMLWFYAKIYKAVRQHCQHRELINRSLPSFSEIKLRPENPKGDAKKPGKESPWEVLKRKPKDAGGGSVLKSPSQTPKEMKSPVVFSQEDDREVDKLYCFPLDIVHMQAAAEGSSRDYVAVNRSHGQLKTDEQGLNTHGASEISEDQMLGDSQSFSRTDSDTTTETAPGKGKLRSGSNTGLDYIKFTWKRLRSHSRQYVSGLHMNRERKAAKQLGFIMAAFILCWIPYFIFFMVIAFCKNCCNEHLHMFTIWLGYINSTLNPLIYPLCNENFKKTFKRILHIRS
Excerpt: as §2

SMILES | perc_inhibition (% inhibition of the binding of a ligand specific for each target)
CC(C)[C@H](Nc1ncnc2[nH]c(-c3cnn(C)c3C#N)cc12)c1ccc2c(n1)OCCO2 [ASAP-0010715] | 5%

target: T4, beta2 (h) (Homo sapiens, UniProt P07550); assay: In vitro CEREP profiling, beta2 (h) (antagonist radioligand); format: binding; conditions: test compound 10 uM
T4 construct: purchased Eurofins Cerep (SafetyScreen44), recognised from the panel format
T4 sequence (P07550 whole entry): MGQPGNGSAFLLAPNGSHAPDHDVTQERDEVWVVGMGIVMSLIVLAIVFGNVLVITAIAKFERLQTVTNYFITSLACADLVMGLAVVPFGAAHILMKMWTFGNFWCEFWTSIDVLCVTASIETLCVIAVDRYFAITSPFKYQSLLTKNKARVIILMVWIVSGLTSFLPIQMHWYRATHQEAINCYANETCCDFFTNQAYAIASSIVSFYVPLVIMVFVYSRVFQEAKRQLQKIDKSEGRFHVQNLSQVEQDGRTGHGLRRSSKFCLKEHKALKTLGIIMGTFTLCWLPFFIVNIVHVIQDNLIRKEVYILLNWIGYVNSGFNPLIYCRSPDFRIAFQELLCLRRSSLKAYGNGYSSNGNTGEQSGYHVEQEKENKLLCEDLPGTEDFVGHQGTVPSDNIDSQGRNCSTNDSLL
Excerpt: as §2

SMILES | perc_inhibition (% inhibition of the binding of a ligand specific for each target)
CC(C)[C@H](Nc1ncnc2[nH]c(-c3cnn(C)c3C#N)cc12)c1ccc2c(n1)OCCO2 [ASAP-0010715] | 3%

tested on: AR(h); assay: In vitro CEREP profiling, AR(h) (agonist radioligand); format: binding, human; conditions: test compound concentration 10 uM
Excerpt: as §2

SMILES | perc_inhibition (% inhibition of the binding of a ligand specific for each target)
CC(C)[C@H](Nc1ncnc2[nH]c(-c3cnn(C)c3C#N)cc12)c1ccc2c(n1)OCCO2 [ASAP-0010715] | -3%

target: T5, acetylcholinesterase (h) (Homo sapiens, UniProt P22303); assay: In vitro CEREP profiling, acetylcholinesterase (h); format: biochemical; conditions: test compound concentration 10 uM; Enzyme and Cell-based assays
T5 construct: purchased Eurofins Cerep (SafetyScreen44), recognised from the panel format
T5 sequence (P22303 32-614): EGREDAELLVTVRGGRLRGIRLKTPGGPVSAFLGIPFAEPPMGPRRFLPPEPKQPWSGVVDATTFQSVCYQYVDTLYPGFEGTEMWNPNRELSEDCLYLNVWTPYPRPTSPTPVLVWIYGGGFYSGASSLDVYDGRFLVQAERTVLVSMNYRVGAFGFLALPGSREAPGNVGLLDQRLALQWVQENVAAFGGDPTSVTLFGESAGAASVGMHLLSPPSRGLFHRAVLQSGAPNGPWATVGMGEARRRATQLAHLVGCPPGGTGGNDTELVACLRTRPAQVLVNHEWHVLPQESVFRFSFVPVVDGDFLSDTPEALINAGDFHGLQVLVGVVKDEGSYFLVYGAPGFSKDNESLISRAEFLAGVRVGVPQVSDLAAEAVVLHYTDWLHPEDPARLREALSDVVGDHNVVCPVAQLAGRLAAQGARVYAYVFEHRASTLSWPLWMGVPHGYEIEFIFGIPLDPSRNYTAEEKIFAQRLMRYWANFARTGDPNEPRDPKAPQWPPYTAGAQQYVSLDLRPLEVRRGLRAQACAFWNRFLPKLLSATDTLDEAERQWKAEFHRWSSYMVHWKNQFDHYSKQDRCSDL
Excerpt: as §2

SMILES | perc_inhibition: % inhibition of control enzyme activity, acetylcholinesterase (h)
CC(C)[C@H](Nc1ncnc2[nH]c(-c3cnn(C)c3C#N)cc12)c1ccc2c(n1)OCCO2 [ASAP-0010715] | 15%

target: T6, CB1 (h) (Homo sapiens, UniProt P21554); assay: In vitro CEREP profiling, CB1 (h) (agonist radioligand); format: binding; conditions: test compound 10 uM
T6 construct: purchased Eurofins Cerep (SafetyScreen44), recognised from the panel format
T6 sequence (P21554 whole entry): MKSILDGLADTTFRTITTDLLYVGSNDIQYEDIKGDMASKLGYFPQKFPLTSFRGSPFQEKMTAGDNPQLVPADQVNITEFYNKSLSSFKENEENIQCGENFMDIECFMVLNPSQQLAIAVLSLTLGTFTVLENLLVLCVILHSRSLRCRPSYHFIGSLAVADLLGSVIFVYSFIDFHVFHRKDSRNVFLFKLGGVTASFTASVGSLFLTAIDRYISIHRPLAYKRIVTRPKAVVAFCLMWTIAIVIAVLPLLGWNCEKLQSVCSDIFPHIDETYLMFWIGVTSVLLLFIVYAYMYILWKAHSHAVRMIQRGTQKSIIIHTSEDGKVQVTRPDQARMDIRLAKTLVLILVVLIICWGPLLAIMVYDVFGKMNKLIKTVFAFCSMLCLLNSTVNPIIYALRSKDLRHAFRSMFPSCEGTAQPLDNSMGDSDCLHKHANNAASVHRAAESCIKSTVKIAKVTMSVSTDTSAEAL
Excerpt: as §2

SMILES | perc_inhibition (% inhibition of the binding of a ligand specific for each target)
CC(C)[C@H](Nc1ncnc2[nH]c(-c3cnn(C)c3C#N)cc12)c1ccc2c(n1)OCCO2 [ASAP-0010715] | 46%

target: T7, mu (MOP) (h) (Homo sapiens, UniProt P35372); assay: In vitro CEREP profiling, mu (MOP) (h) (agonist radioligand); format: binding; conditions: test compound concentration 10 uM
T7 construct: purchased Eurofins Cerep (SafetyScreen44), recognised from the panel format
T7 sequence (P35372 whole entry): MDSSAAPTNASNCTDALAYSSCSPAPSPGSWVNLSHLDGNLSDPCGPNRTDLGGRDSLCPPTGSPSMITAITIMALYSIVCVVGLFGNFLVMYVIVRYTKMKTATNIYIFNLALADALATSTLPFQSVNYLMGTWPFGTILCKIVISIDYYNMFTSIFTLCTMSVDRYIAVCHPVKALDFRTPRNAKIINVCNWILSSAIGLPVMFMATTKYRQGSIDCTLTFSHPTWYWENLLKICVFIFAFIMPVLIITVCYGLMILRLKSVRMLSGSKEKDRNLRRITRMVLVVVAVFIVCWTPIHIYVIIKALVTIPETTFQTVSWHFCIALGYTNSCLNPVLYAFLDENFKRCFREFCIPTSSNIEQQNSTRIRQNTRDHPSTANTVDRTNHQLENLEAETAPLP
Excerpt: as §2

SMILES | perc_inhibition (% inhibition of the binding of a ligand specific for each target)
CC(C)[C@H](Nc1ncnc2[nH]c(-c3cnn(C)c3C#N)cc12)c1ccc2c(n1)OCCO2 [ASAP-0010715] | 15%

tested on: HeLa-ACE2 cells; assay: not given; conditions: HeLa-ACE2 cytotoxicity

SMILES | CC50
CC(C)[C@H](Nc1ncnc2[nH]c(-c3cnn(C)c3C#N)cc12)c1ccc2c(n1)OCCO2 [ASAP-0010715] | 12.5 µM and > 20 µM

same assay, conditions: HeLa-ACE2 cytotoxicity; highest measured response of the dose series

SMILES | perc_max_measured
CC(C)[C@H](Nc1ncnc2[nH]c(-c3cnn(C)c3C#N)cc12)c1ccc2c(n1)OCCO2 [ASAP-0010715] | 90.88% and 122.905% and 97.413%

target: T8, 5-HT1A (h) (Homo sapiens, UniProt P08908); assay: In vitro CEREP profiling, 5-HT1A (h) (agonist radioligand); format: binding; conditions: test compound concentration 10 uM
T8 construct: purchased Eurofins Cerep (SafetyScreen44), recognised from the panel format
T8 sequence (P08908 1-422): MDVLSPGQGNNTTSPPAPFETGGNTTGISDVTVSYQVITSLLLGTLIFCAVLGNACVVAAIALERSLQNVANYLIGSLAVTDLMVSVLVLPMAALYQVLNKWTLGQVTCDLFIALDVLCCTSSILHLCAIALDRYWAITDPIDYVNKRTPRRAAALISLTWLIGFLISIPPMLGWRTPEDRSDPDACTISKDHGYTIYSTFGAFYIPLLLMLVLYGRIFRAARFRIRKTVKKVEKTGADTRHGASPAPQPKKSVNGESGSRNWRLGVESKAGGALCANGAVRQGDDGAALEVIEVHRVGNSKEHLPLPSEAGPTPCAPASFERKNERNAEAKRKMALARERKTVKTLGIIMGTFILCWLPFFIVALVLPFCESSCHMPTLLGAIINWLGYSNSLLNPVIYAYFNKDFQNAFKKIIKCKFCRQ
Excerpt: as §2

SMILES | perc_inhibition (% inhibition of the binding of a ligand specific for each target)
CC(C)[C@H](Nc1ncnc2[nH]c(-c3cnn(C)c3C#N)cc12)c1ccc2c(n1)OCCO2 [ASAP-0010715] | 43%

target: T9, ETA (h) (Homo sapiens, UniProt P25101); assay: In vitro CEREP profiling, ETA (h) (agonist radioligand); format: binding; conditions: test compound 10 uM
T9 construct: purchased Eurofins Cerep (SafetyScreen44), recognised from the panel format
T9 sequence (P25101 21-427): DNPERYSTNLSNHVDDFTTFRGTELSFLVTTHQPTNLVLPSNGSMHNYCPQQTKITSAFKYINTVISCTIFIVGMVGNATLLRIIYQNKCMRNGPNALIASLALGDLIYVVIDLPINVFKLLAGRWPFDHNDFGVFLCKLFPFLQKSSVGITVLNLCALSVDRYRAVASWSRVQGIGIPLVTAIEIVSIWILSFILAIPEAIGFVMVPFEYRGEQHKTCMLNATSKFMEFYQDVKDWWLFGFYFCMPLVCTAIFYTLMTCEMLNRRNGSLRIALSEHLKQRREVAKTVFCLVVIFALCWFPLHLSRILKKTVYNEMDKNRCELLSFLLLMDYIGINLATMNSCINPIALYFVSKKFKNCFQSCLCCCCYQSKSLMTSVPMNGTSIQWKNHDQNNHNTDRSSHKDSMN
Excerpt: as §2

SMILES | perc_inhibition (% inhibition of the binding of a ligand specific for each target)
CC(C)[C@H](Nc1ncnc2[nH]c(-c3cnn(C)c3C#N)cc12)c1ccc2c(n1)OCCO2 [ASAP-0010715] | 42%

tested on: not listed separately; assay: In vitro dog liver microsomal stability; format: in vitro ADME; conditions: not given
Excerpt: Supplement media-1.zip/Hepatic_Microsomal_Stability.csv, table | column: clint; t_half

SMILES | clint | t_half
CC(C)[C@H](Nc1ncnc2[nH]c(-c3cnn(C)c3C#N)cc12)c1ccc2c(n1)OCCO2 [ASAP-0010715] | 23.7 µL/min/mg | 29.2 min
